Measurements: the supplement of paper PMC10307832

Assays:
Test in all cases: relative viability (nuclei count vs DMSO), 5 days (fraction); higher = more cells survive
[1] = compound: C(C(=O)C(=O)O)Br [Bromopyruvate] + Cc1cc(Nc2cc(N3CCN(C)CC3)nc(Sc3ccc(NC(=O)C4CC4)cc3)n2)n[nH]1 [Tozasertib] (partner 0.1 µM)
Summary of the method: (§1)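 Relative viability was taken as the ratio of nuclei in treated wells to nuclei in vehicle wells. Lung cancer cell lines in 1536-well plates received compounds by pin tool one day after seeding, either one drug alone or a fixed anchor-drug dose plus five library-drug doses (not always all listed) in √10 steps. Nuclei were counted on 4× images after 5 days of treatment, and values are medians of duplicate plates.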

[2] = compound: C(C(=O)C(=O)O)Br [Bromopyruvate] + N=C(N)NC(=N)NCCc1ccccc1 [Phenformin] (partner 250 µM)
Summary of the method: as §1

[3] = compound: CC(O)(CS(=O)(=O)c1ccc(F)cc1)C(=O)Nc1ccc(C#N)c(C(F)(F)F)c1 [Bicalutamide] + CC(C)C[C@H](NC(=O)[C@H](Cc1ccccc1)NC(=O)c1cnccn1)B(O)O [Bortezomib] (partner 0.002 µM)
Summary of the method: as §1

Bicalutamide + Lapatinib = compound: CC(O)(CS(=O)(=O)c1ccc(F)cc1)C(=O)Nc1ccc(C#N)c(C(F)(F)F)c1 [Bicalutamide] + CS(=O)(=O)CCNCc1ccc(-c2ccc3ncnc(Nc4ccc(OCc5cccc(F)c5)c(Cl)c4)c3c2)o1 [Lapatinib] (partner 2 µM)
Summary of the method: as §1

Cell Line | relative viability ([1]; first compound 1 µM) | relative viability ([1]; first compound 3.162 µM) | relative viability ([1]; first compound 10 µM) | relative viability ([1]; first compound 31.62 µM) | relative viability ([1]; first compound 100 µM) | relative viability ([2]; first compound 1 µM) | relative viability ([2]; first compound 3.162 µM) | relative viability ([2]; first compound 10 µM) | relative viability ([2]; first compound 31.62 µM) | relative viability ([2]; first compound 100 µM) | relative viability ([3]; first compound 0.08 µM) | relative viability ([3]; first compound 0.253 µM) | relative viability ([3]; first compound 0.8 µM) | relative viability ([3]; first compound 2.53 µM) | relative viability (Bicalutamide + Lapatinib; first compound 0.08 µM) | relative viability (Bicalutamide + Lapatinib; first compound 0.253 µM) | relative viability (Bicalutamide + Lapatinib; first compound 0.8 µM) | relative viability (Bicalutamide + Lapatinib; first compound 2.53 µM)
NCI-H3122 | 0.381 | 0.378 | 0.468 | 0.417 | 0.382 | 0.401 | 0.398 | 0.394 | 0.374 | 0.376 | 1.03 | 1.03 | 0.988 | 1.03 | 0.983 | 0.962 | 1.04 | 1.04
PC-3 [JPC-3] | 0.906 | 0.868 | 0.937 | 0.841 | 0.892 | 0.495 | 0.488 | 0.458 | 0.493 | 0.493 | 0.808 | 0.909 | 0.908 | 0.818 | 0.476 | 0.421 | 0.456 | 0.476
PC-14 | 0.598 | 0.566 | 0.633 | 0.633 | 0.628 | 0.754 | 0.737 | 0.776 | 0.546 | 0.516 | 0.923 | 0.974 | 0.827 | 0.89 | 0.301 | 0.295 | 0.452 | 0.297
RERF-LC-KJ | 0.508 | 0.491 | 0.433 | 0.517 | 0.413 | 0.4 | 0.438 | 0.514 | 0.429 | 0.416 | 1.24 | 0.951 | 1.23 | 1.07 | 0.904 | 0.862 | 1.07 | 0.705
SK-LU-1 | 0.328 | 0.349 | 0.333 | 0.382 | 0.266 | 0.52 | 0.533 | 0.581 | 0.506 | 0.494 | 1.33 | 1.37 | 1.89 | 1.09 | 0.95 | 0.828 | 0.997 | 0.854
SW 1573 | 0.191 | 0.184 | 0.159 | 0.171 | 0.0582 | 0.387 | 0.446 | 0.385 | 0.34 | 0.0639 | 1.05 | 0.842 | 1.25 | 0.912 | 1.03 | 0.909 | 1.3 | 1.11
